# Results: patent publication US8772348B2, “Materials and methods for pest control” (priority 2009, dated 2014)
# Like-named read-outs stand apart in the source and are kept apart here.
# What was measured:
# Aedes aegypti [1] = conditions: filter paper discs, after a 24-hour exposure
# Method: Briefly, yellow fever mosquito, Ae. aegypti were obtained from strains that have been cultured in the laboratory of the Entomology and Nematology Department, University of Florida.
# The mortality rate is measured after a 2-hour, 4-hour and 24-hour exposure period. Ataxic mosquitoes are considered dead.
# The ability of Ae. aegypti to recover from insecticidal exposure is also investigated. After a 2-hour exposure, each set of Ae. aegypti is transferred into a separate jar. The mortality rate is measured at two time intervals: first, immediately at the transfer (2 hours after the initial exposure), and second, 22 hours after the transfer (24 hours after the initial exposure).
# Musca domestica = conditions: M. domestica; formulation on plywood panels at 1.67 mg cm^−2; mortality 24 h after
# Method: Briefly, each fly strain is divided into eight sets: three sets as the experiment, four sets as the positive control, and one set as the negative control. Flies are assayed on unpainted plywood panel boards that have been previously exposed to natural summer weather conditions for at least 10 days. […] The positive control set is treated with permethrin, geranyl acetone, rosalva or citronellol. The negative control set is treated with water. The formulation is applied at a uniform rate of 7.5 ml per 225 cm^2, sufficient to cover the entire panel without dripping. Subsequently, the treated panel boards are dried for about an hour.
# In each set, 20 adult flies are placed onto the panel boards. Flies are secured with wooden embroidery hoops, covered with a coarse mesh screen cloth previously sprayed with the respective formulation. After 4 hours, flies are transferred into a clean jar. The mortality rate is measured 24 hours after the transfer, and is determined using the same procedures as are illustrated in Example 2.
# Plywood panels (225 cm^2) were treated with chemicals at a rate of 1.67 mgcm^−2. Panels were treated on day 0 and held until exposure on post-treatment day. Mosquitoes were exposed to chemicals for 2 h, and mortality rate was assessed 24 h after initial exposure. Control contained formulation ingredients without semiochemicals.
# Aedes aegypti [2] = conditions: formulation on plywood panels at 1.67 mg cm^−2, 2 h exposure, mortality 24 h after initial exposure
# Method: Briefly, after mosquitoes are assayed on unpainted plywood panel boards with formulation at a concentration of 1.67 mg cm^−2 for 2 hours, they are transferred into a separate glass jar, and held for another 24 hours. The mortality rate is measured daily for a continuous 4 days (Day 1 starts at 24 hours after the transfer), as is determined using the same procedures as are illustrated in Example 2.
# Plywood panels (225 cm^2) were treated with chemicals at a rate of 1.67 mg cm^−2. Panels were treated on day 0 and was held until exposure on post-treatment day. Mosquitoes were exposed to chemicals for 2 h, and mortality rate was assessed 24 h after initial exposure. Control contained formulation ingredients without semiochemicals.
smiles,measurement,setting,value
"CC1(C)CCCC2=C1CC(C=O)CC2 (stereo not drawn) [Cyclemone A, 2-naphthaldehyde, 1,2,3,4,5,6,7,8-octahydro-8,8-dimethyl]",mortality rate,Aedes aegypti [1],~100%
same,% mortality,Musca domestica,48.20b %
same,% mortality on various days following treatment,Aedes aegypti [2]; day 1,100.00a %
same,% mortality on various days following treatment,Aedes aegypti [2]; day 2,72.00b %
same,% mortality on various days following treatment,Aedes aegypti [2]; day 3,28.0b %
same,% mortality on various days following treatment,Aedes aegypti [2]; day 4,13.0b %
